Values quoted from earlier work as cited in patent publication US20210267908A1, “PHARMACEUTICAL COMPOSITIONS OF RIVAROXABAN” (MANKIND PHARMA LTD., priority 2020, published 2021).

SMILES: O=C(NC[C@H]1CN(c2ccc(N3CCOCC3=O)cc2)C(=O)O1)c1ccc(Cl)s1 [Rivaroxaban, 5-Chloro-N-({(5S)-2-oxo-3-[4-(3-oxo-4-morpholinyl)phenyl]-1,3-oxazolidin-5-yl}methyl)-2-thiophenecarboxamide]
- amount pH-independently soluble in aqueous media (aqueous media at 25° C.): 5-7 mg/L
- solubility in organic solvents (organic solvents (e.g. acetone, polyethylene glycol 400)): only slightly soluble
- solubility in water and aqueous media (water and aqueous media with pH 1-9): practically insoluble
